Test results taken from patent US12624004B2 (Fudan University, priority 2019, dated 2026).
Where two headings read alike, the source gives them in different places.

Molecular target: T1, μ opioid receptor (Homo sapiens, UniProt P35372)
T1 construct: expressed in transfected cells; host or cells: CHO cells (membranes)
Assay: Competition binding assay on membranes of CHO cells expressing μ opioid receptor, [3H]-labeled ligand
Summary of the method: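 CHO membranes (20–30 μg protein) incubated with [3H]-labeled ligand at 1–2 nM and test compounds, 30 min at 30° C; nonspecific binding with 1 μM corresponding ligand. Filtered on GF/C, washed with 50 mM Tris-HCl pH 7.4, scintillation-counted. IC50 converted to Ki by Ki=IC50/(1+[L]/Kd).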

T1 sequence (P35372 whole entry, species assumed): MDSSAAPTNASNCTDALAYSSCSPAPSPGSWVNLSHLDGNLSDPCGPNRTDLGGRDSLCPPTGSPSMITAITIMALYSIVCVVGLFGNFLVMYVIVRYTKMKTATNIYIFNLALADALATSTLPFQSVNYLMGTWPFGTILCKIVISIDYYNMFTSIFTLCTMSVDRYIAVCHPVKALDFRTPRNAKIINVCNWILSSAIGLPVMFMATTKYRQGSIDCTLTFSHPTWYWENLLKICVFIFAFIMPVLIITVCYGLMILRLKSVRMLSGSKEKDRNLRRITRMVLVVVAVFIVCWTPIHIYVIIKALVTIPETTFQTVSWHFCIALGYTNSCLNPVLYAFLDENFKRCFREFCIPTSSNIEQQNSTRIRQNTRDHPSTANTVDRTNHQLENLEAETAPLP

Question: How did the inhibition at 1 µM (0.5 h, Table 5-1, 1 μM concentration of compound, read-out: μOR Combination rate (%)) turn out when `COc1cccc(C2(O)CCCCC2CN(C)C)c1` (centres unmarked) [Tramadol, reference compound] was run?
Answer: The inhibition at 1 µM was 6 ± 0.4%.

Question: And the inhibition at 10 µM (Table 1-1, 10 μM concentration of compound, mean ± SD of three measurements, read-out: μOR Binding rate (%))?
Answer: The inhibition at 10 µM was 6 ± 0.4%.

Question: And the inhibition at 1 µM (Table 2-1, 1 μM concentration of compound, read-out: μOR Binding rate (%))?
Answer: Its inhibition at 1 µM is 6 ± 0.4%.

Question: What about the “μOR Binding rate (%)” value (Table 3-1, 1 μM concentration of compounds) of the same molecule?
Answer: The value was 6.0%.

Question: And the “μOR Binding rate (%)” value (Table 4-1, 1 μM concentration of compound)?
Answer: Its value is 6.0 ± 0.4%.
